According to paper PMC10660663:

What was measured:
[1] = SuFEx S-O bond formation: di-sulfonimidoyl fluoride (mixture of diastereomers) + diphenol (1:1), DBU 2.1 equiv, [1+1] macrocyclisation, one pot; conditions: the molecule shown is the open-chain precursor, MeCN, 20.0 mM, 50.0 °C, 3.0 h
[2] = Enantiospecific SuFEx S-O bond formation: enantiopure di-sulfonimidoyl fluoride + sodium diphenolate (1:1), [1+1] macrocyclisation, one pot; conditions: the molecule shown is the open-chain precursor, MeCN, 12.5 mM, 60.0 °C, 6.0 h

Cc1ccc(S(=O)(F)=NC(=O)c2ccc(C(=O)N=S(=O)(Oc3ccc(C(C)(C)c4cccc(C(C)(C)c5ccc(O)cc5)c4)cc3)c3ccc(C)cc3)cc2)cc1 (centres unmarked)
ring closure, isolated yield ([1]; 25-membered ring): 74%

Cc1ccc(S(=O)(F)=NC(=O)c2ccc(C(=O)N=S(=O)(Oc3ccc(SSc4ccc(O)cc4)cc3)c3ccc(C)cc3)cc2)cc1 (centres unmarked) [3a]
ring closure, isolated yield ([1]; 22-membered ring): 96%

CCC(c1ccc(O)cc1)C(CC)c1ccc(OS(=O)(=NC(=O)c2ccc(C(=O)N=S(=O)(F)c3ccc(C)cc3)cc2)c2ccc(C)cc2)cc1 (centres unmarked) [3b]
ring closure, isolated yield ([1]; 22-membered ring): 61%

Cc1ccc(S(=O)(F)=NC(=O)c2ccc(C(=O)N=S(=O)(Oc3cccc(Oc4cccc(Oc5cccc(O)c5)c4)c3)c3ccc(C)cc3)cc2)cc1 (centres unmarked) [3d]
ring closure, isolated yield ([1]; 23-membered ring): 67%

Cc1ccc(S(=O)(F)=NC(=O)c2ccc(C(=O)N=S(=O)(Oc3ccccc3CNCCCCCCNCc3ccccc3O)c3ccc(C)cc3)cc2)cc1 (centres unmarked) [3e]
ring closure, isolated yield ([1]; 26-membered ring): 91%

Cc1ccc(S(=O)(F)=NC(=O)c2ccc(C(=O)N=S(=O)(Oc3ccccc3CNCCNCc3ccccc3O)c3ccc(C)cc3)cc2)cc1 (centres unmarked) [3f]
ring closure, isolated yield ([1]; 22-membered ring): 87%

Cc1ccc(S(=O)(F)=NC(=O)c2ccc(C(=O)N=S(=O)(Oc3ccc(OCCOc4ccc(O)cc4)cc3)c3ccc(C)cc3)cc2)cc1 (centres unmarked) [3g]
ring closure, isolated yield ([1]; 24-membered ring): 79%

Cc1ccc(S(=O)(F)=NC(=O)c2ccc(C(=O)N=S(=O)(Oc3ccc(OCCCCCCCCOc4ccc(O)cc4)cc3)c3ccc(C)cc3)cc2)cc1 (centres unmarked) [3h]
ring closure, isolated yield ([1]; 30-membered ring): 62%

Cc1ccc(S(=O)(F)=NC(=O)c2ccc(Oc3ccc(C(=O)N=S(=O)(Oc4ccc(SSc5ccc(O)cc5)cc4)c4ccc(C)cc4)cc3)cc2)cc1 (centres unmarked) [3i]
ring closure, isolated yield ([1]; 27-membered ring): 91%

CCC(c1ccc(O)cc1)C(CC)c1ccc(OS(=O)(=NC(=O)c2ccc(Oc3ccc(C(=O)N=S(=O)(F)c4ccc(C)cc4)cc3)cc2)c2ccc(C)cc2)cc1 (centres unmarked) [3j]
ring closure, isolated yield ([1]; 27-membered ring): 88%

Cc1ccc([S@](=O)(F)=NC(=O)c2ccc(Oc3ccc(C(=O)N=[S@](=O)(Oc4ccc(Cc5ccc([O-])cc5)cc4)c4ccc(C)cc4)cc3)cc2)cc1 [(R,R)-3Aa]
ring closure, isolated yield ([2]; 26-membered ring): 12%

Cc1ccc([S@](=O)(F)=NC(=O)c2ccc(Oc3ccc(C(=O)N=[S@](=O)(Oc4ccc(Oc5ccc([O-])cc5)cc4)c4ccc(C)cc4)cc3)cc2)cc1 [(R,R)-3Ab]
ring closure, isolated yield ([2]; 26-membered ring): 10%

Cc1ccc([S@](=O)(F)=NC(=O)c2ccc(Oc3ccc(C(=O)N=[S@](=O)(Oc4ccc(C(C)(C)c5ccc([O-])cc5)cc4)c4ccc(C)cc4)cc3)cc2)cc1 [(R,R)-3Ac]
ring closure, isolated yield ([2]; 26-membered ring): 14%

Cc1ccc([S@](=O)(F)=NC(=O)c2ccc(Oc3ccc(C(=O)N=[S@](=O)(Oc4ccc(C(c5ccc([O-])cc5)(C(F)(F)F)C(F)(F)F)cc4)c4ccc(C)cc4)cc3)cc2)cc1 [(R,R)-3Ad]
ring closure, isolated yield ([2]; 26-membered ring): 12%

Cc1ccc([S@](=O)(F)=NC(=O)c2ccc(C(=O)N=[S@](=O)(Oc3ccc(C(C)(C)c4cccc(C(C)(C)c5ccc([O-])cc5)c4)cc3)c3ccc(C)cc3)cc2)cc1 [(R,R)-3c]
ring closure, isolated yield ([2]; 25-membered ring): 35%

Cc1ccc([S@](=O)(F)=NC(=O)c2ccc(Oc3ccc(C(=O)N=[S@](=O)(Oc4ccc(C(C)(C)c5cccc(C(C)(C)c6ccc([O-])cc6)c5)cc4)c4ccc(C)cc4)cc3)cc2)cc1 [(R,R)-3o (diphenyl ether)]
ring closure, isolated yield ([2]; 30-membered ring): 65%

Cc1ccc([S@](=O)(F)=NC(=O)c2ccc(C(=O)N=[S@](=O)(Oc3ccc(Cc4ccc([O-])cc4)cc3)c3ccc(C)cc3)cc2)cc1 [(R,R)-3u]
ring closure, isolated yield ([2]; 21-membered ring): 42%

Cc1ccc([S@](=O)(F)=NC(=O)c2ccc(C(=O)N=[S@](=O)(Oc3ccc(Oc4ccc([O-])cc4)cc3)c3ccc(C)cc3)cc2)cc1 [(R,R)-3v]
ring closure, isolated yield ([2]; 21-membered ring): 26%

Cc1ccc([S@](=O)(F)=NC(=O)c2ccc(C(=O)N=[S@](=O)(Oc3ccc(C(C)(C)c4ccc([O-])cc4)cc3)c3ccc(C)cc3)cc2)cc1 [(R,R)-3w]
ring closure, isolated yield ([2]; 21-membered ring): 54%

Cc1ccc([S@](=O)(F)=NC(=O)c2ccc(C(=O)N=[S@](=O)(Oc3ccc(C(c4ccc([O-])cc4)(C(F)(F)F)C(F)(F)F)cc3)c3ccc(C)cc3)cc2)cc1 [(R,R)-3x]
ring closure, isolated yield ([2]; 21-membered ring): 35%

Cc1ccc([S@](=O)(F)=NC(=O)c2ccc(-c3ccc(C(=O)N=[S@](=O)(Oc4ccc(C(C)(C)c5cccc(C(C)(C)c6ccc([O-])cc6)c5)cc4)c4ccc(C)cc4)cc3)cc2)cc1 [(R,R)-3y]
ring closure, isolated yield ([2]; 29-membered ring): 27%

Cc1ccc([S@@](=O)(F)=NC(=O)c2ccc(Oc3ccc(C(=O)N=[S@@](=O)(Oc4ccc(Cc5ccc([O-])cc5)cc4)c4ccc(C)cc4)cc3)cc2)cc1 [(S,S)-3Aa]
ring closure, isolated yield ([2]; 26-membered ring): 12%

Cc1ccc([S@@](=O)(F)=NC(=O)c2ccc(Oc3ccc(C(=O)N=[S@@](=O)(Oc4ccc(Oc5ccc([O-])cc5)cc4)c4ccc(C)cc4)cc3)cc2)cc1 [(S,S)-3Ab]
ring closure, isolated yield ([2]; 26-membered ring): 14%

Cc1ccc([S@@](=O)(F)=NC(=O)c2ccc(Oc3ccc(C(=O)N=[S@@](=O)(Oc4ccc(C(C)(C)c5ccc([O-])cc5)cc4)c4ccc(C)cc4)cc3)cc2)cc1 [(S,S)-3Ac]
ring closure, isolated yield ([2]; 26-membered ring): 16%

Cc1ccc([S@@](=O)(F)=NC(=O)c2ccc(Oc3ccc(C(=O)N=[S@@](=O)(Oc4ccc(C(c5ccc([O-])cc5)(C(F)(F)F)C(F)(F)F)cc4)c4ccc(C)cc4)cc3)cc2)cc1 [(S,S)-3Ad]
ring closure, isolated yield ([2]; 26-membered ring): 20%

Cc1ccc([S@@](=O)(F)=NC(=O)c2ccc(C(=O)N=[S@@](=O)(Oc3ccc(SSc4ccc([O-])cc4)cc3)c3ccc(C)cc3)cc2)cc1 [(S,S)-3a]
ring closure, isolated yield ([2]; 22-membered ring): 93%

Cc1ccc([S@@](=O)(F)=NC(=O)c2ccc(C(=O)N=[S@@](=O)(Oc3ccc(C(C)(C)c4cccc(C(C)(C)c5ccc([O-])cc5)c4)cc3)c3ccc(C)cc3)cc2)cc1 [(S,S)-3c]
ring closure, isolated yield ([2]; 25-membered ring): 42%

Cc1ccc([S@@](=O)(F)=NC(=O)c2ccc(C(=O)N=[S@@](=O)(Oc3cccc(Oc4cccc(Oc5cccc([O-])c5)c4)c3)c3ccc(C)cc3)cc2)cc1 [(S,S)-3d]
ring closure, isolated yield ([2]; 23-membered ring): 71%

Cc1ccc([S@@](=O)(F)=NC(=O)c2ccc(C(=O)N=[S@@](=O)(Oc3ccccc3CNCCNCc3ccccc3[O-])c3ccc(C)cc3)cc2)cc1 [(S,S)-3f]
ring closure, isolated yield ([2]; 22-membered ring): 75%

Cc1ccc([S@@](=O)(F)=NC(=O)c2ccc(Oc3ccc(C(=O)N=[S@@](=O)(Oc4cccc(Oc5cccc(Oc6cccc([O-])c6)c5)c4)c4ccc(C)cc4)cc3)cc2)cc1 [(S,S)-3k]
ring closure, isolated yield ([2]; 28-membered ring): 85%

Cc1ccc([S@@](=O)(F)=NC(=O)c2ccc(Oc3ccc(C(=O)N=[S@@](=O)(Oc4ccc(C(C)(C)c5cccc(C(C)(C)c6ccc([O-])cc6)c5)cc4)c4ccc(C)cc4)cc3)cc2)cc1 [(S,S)-3o (diphenyl ether)]
ring closure, isolated yield ([2]; 30-membered ring): 64%

Cc1ccc([S@@](=O)(F)=NC(=O)c2cccc(C(=O)N=[S@@](=O)(Oc3ccc(SSc4ccc([O-])cc4)cc3)c3ccc(C)cc3)n2)cc1 [(S,S)-3r]
ring closure, isolated yield ([2]; 21-membered ring): 71%

Cc1ccc([S@@](=O)(F)=NC(=O)c2ccc(C(=O)N=[S@@](=O)(Oc3ccc(Cc4ccc([O-])cc4)cc3)c3ccc(C)cc3)cc2)cc1 [(S,S)-3u]
ring closure, isolated yield ([2]; 21-membered ring): 54%

Cc1ccc([S@@](=O)(F)=NC(=O)c2ccc(C(=O)N=[S@@](=O)(Oc3ccc(Oc4ccc([O-])cc4)cc3)c3ccc(C)cc3)cc2)cc1 [(S,S)-3v]
ring closure, isolated yield ([2]; 21-membered ring): 34%

Cc1ccc([S@@](=O)(F)=NC(=O)c2ccc(C(=O)N=[S@@](=O)(Oc3ccc(C(C)(C)c4ccc([O-])cc4)cc3)c3ccc(C)cc3)cc2)cc1 [(S,S)-3w]
ring closure, isolated yield ([2]; 21-membered ring): 62%

Cc1ccc([S@@](=O)(F)=NC(=O)c2ccc(C(=O)N=[S@@](=O)(Oc3ccc(C(c4ccc([O-])cc4)(C(F)(F)F)C(F)(F)F)cc3)c3ccc(C)cc3)cc2)cc1 [(S,S)-3x]
ring closure, isolated yield ([2]; 21-membered ring): 33%

Cc1ccc([S@@](=O)(F)=NC(=O)c2ccc(-c3ccc(C(=O)N=[S@@](=O)(Oc4ccc(C(C)(C)c5cccc(C(C)(C)c6ccc([O-])cc6)c5)cc4)c4ccc(C)cc4)cc3)cc2)cc1 [(S,S)-3y]
ring closure, isolated yield ([2]; 29-membered ring): 37%

Cc1ccc([S@@](=O)(F)=NC(=O)c2ccc(-c3ccc(C(=O)N=[S@@](=O)(Oc4ccc(Cc5ccc([O-])cc5)cc4)c4ccc(C)cc4)cc3)cc2)cc1 [[1+1] of 4f (not observed)]
ring closure, isolated yield ([2]; 25-membered ring): 0%

Cc1ccc([S@@](=O)(F)=NC(=O)c2ccc(-c3ccc(C(=O)N=[S@@](=O)(Oc4ccc(Oc5ccc([O-])cc5)cc4)c4ccc(C)cc4)cc3)cc2)cc1 [[1+1] of 4g (not observed)]
ring closure, isolated yield ([2]; 25-membered ring): 0%

Cc1ccc([S@@](=O)(F)=NC(=O)c2ccc(-c3ccc(C(=O)N=[S@@](=O)(Oc4ccc(C(C)(C)c5ccc([O-])cc5)cc4)c4ccc(C)cc4)cc3)cc2)cc1 [[1+1] of 4i (not observed)]
ring closure, isolated yield ([2]; 25-membered ring): 0%

Cc1ccc([S@@](=O)(F)=NC(=O)c2ccc(-c3ccc(C(=O)N=[S@@](=O)(Oc4ccc(C(c5ccc([O-])cc5)(C(F)(F)F)C(F)(F)F)cc4)c4ccc(C)cc4)cc3)cc2)cc1 [[1+1] of 4j (not observed)]
ring closure, isolated yield ([2]; 25-membered ring): 0%
